Data: patent publication US20260199497A1, “GLUCOCORTICOID RECEPTOR AGONIST AND CONJUGATE THEREOF” (priority 2023, published 2026)

Tests used:
Type in all cases: cell-based
mouse B cells = test: In vitro inhibition of the proliferation of mouse B cells by the glucocorticoid; conditions: 4 days; for IC50: B-cell, 96 h, LPS 5 μg/ml stimulated mouse spleen B cells, live cells by flow cytometry; for in-vitro inhibitory activity on the proliferation of mouse B cells: LPS 5 μg/ml, ranking of the compounds
Method: According to instructions of the EasySEP mouse panB cell sorting kit (Stemcell/1984/1×100e9 cells), B cells were isolated from mouse spleen cells. After obtaining the B cells, they were resuspended in complete medium (1640+10% FBS+50 uM β-mercaptoethanol), and added to a 96-well cell culture plate at 1E5 cells/100 μL per well. 4×LPS (20 μg/ml) was prepared, and add to the plated cells at 50 μL per well, with a final concentration of 5 μg/ml. The glucocorticoid was diluted with complete medium in a 5-fold gradient, starting at a final concentration of 20 nM, and added to the plated cells at 50 μL per well. The cells were incubated in a 37° C. cell culture incubator for 4 days. Then PI was added to the cells for dead cell staining, and the number of live cells was detected by flow cytometry. The cell viability was calculated using the number of live cells in the untreated wells as the denominator. The cell viability values was imported into the GraphPad Prism 8 software to calculate IC50. The structure of the comparative compound 1 is as follows: […]

glucocorticoid receptor [1] = target: T1, glucocorticoid receptor (Homo sapiens, UniProt P04150); test: GRE reporter gene test (Experiment Example 1), HEK293T cells transfected with pGL4.35 and p-Bind GR Vector; conditions: for EC50: GRE reporter gene, HEK293T cells, 18-20 h incubation; for Emax: HEK-293T; for maximum agonistic effect (Emax): compared with dexamethasone, transfected HEK293T cells
T1 sequence (P04150 524-777 limits assumed): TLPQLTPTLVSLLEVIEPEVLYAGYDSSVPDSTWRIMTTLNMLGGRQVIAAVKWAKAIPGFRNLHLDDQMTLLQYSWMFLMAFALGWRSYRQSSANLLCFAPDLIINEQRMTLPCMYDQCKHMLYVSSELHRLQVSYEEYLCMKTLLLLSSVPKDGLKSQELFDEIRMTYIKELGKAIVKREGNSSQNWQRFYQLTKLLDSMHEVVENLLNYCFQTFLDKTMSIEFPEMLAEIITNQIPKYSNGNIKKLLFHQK
Method: The compound of the present invention to be tested was formulated into a 10 mM solution with DMSO, and then subjected to 4-fold dilution at 10 concentration points using DMSO to obtain a 1000× mother liquor, with a final test concentration of 0.000038-10 μM.
(§1) HEK293T cells (ATCC) were plated in a 100 mm culture dish at a density of 6*10^6 cells/culture dish, and cultured for 16 h under the conditions of 37° C. and 5% CO2. Plasmids (pGL4.35 [luc2P/9XGAL4 UAS/Hygro], p-Bind GR Vector, Promega) and Lipofectamine® 3000 (Invitrogen) were mixed, added into the culture dish, and then incubated for 5-6 h under the conditions of 37° C. and 5% CO2.
In a 384-well plate (PerkinElmer), 25 nL of the compound mother liquor was added, and then HEK293T cells transfected with plasmids were added at a density of 18000 cells/well. The cells were incubated for 18-20 h under the conditions of 37° C. and 5% CO2.
After the incubation was ended, 25 μL of britelite plus luciferase assay reagent (PerkinElmer) was added, and then reading was performed using an Envision 2105 multiplate reader (PerkinElmer).
(§2) The activity was calculated using the following formula, % activity=100*(signal of compound well−average signal of negative control well)/(average signal of positive control well−average signal of negative control well). […] Fitting calculation of EC50 was performed on % activity and the logarithmic concentration of the compound using Graphpad 8.0, Y=Bottom+(Top−Bottom)/(1+10^((Log EC50−X)*HillSlope)), wherein Y is % activity, and X is the logarithmic concentration of the compound.

glucocorticoid receptor [2] = target: T2, glucocorticoid receptor (Homo sapiens, UniProt P04150); test: In vitro activation activity of the glucocorticoid on the glucocorticoid receptor in Hela-MMTV luciferase reporter cells; conditions: 48 hours; for in vitro activation activity on the glucocorticoid receptor in the cells: Hela-MMTV cells, compared with comparative compound 1; for EC50: Hela-MMTV luciferase reporter cells
T2 sequence (P04150 1-777): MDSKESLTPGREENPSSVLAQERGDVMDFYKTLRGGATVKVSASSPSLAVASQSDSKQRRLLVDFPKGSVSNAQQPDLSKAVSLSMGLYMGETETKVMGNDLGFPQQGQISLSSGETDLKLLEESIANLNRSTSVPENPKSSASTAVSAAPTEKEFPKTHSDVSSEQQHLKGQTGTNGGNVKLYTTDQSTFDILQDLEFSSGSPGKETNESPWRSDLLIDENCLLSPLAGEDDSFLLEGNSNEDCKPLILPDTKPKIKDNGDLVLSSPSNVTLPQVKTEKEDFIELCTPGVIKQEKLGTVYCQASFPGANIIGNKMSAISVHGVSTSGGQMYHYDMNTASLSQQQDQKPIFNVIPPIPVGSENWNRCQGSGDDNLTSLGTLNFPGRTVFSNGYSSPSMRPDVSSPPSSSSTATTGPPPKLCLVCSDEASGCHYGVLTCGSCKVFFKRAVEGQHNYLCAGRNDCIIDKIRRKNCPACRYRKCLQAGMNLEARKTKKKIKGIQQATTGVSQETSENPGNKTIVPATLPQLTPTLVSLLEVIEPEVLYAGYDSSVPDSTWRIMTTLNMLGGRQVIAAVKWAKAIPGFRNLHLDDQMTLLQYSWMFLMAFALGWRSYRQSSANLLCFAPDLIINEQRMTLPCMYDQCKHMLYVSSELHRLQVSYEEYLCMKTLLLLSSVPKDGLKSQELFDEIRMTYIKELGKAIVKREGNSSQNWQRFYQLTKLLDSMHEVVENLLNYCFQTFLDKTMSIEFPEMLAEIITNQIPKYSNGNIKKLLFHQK
Method: The activation activity of the glucocorticoid on glucocorticoid receptor was tested in the constructed Hela-MMTV luciferase reporter system cells. Adherent Hela-MMTV cells were digested using a Trypsin-EDTA (0.25%) solution, counted, and the cells in a required number were resuspended in complete medium (1640+10% FBS). The cells were then plated in a 96-well cell culture plate at 10,000 cells/100 μl. The glucocorticoid was diluted in complete medium, starting at a final concentration of 75 nM, followed by 5-fold gradient dilution, and was added to the plated cells at 100 μl per well. The cells were incubated in a cell culture incubator at 37° C. for 48 hours. Then Bio-Lite luciferase assay reagent (Vazyme DD1201-03) was added to the cells at 20 μl per well, followed by homogeneously shaking for 10 minutes, and luminescence readings were obtained using a microplate reader. The data were imported into GraphPad Prism 8 software to calculate the EC50 value.

glucocorticoid receptor [3] = target: T1, glucocorticoid receptor; test: GRE reporter gene test (Experiment Example 2), HEK293T cells transfected with pGL4.35 and p-Bind GR Vector; conditions: for EC50: GRE reporter gene, HEK293T cells, 18-20 h incubation; for Emax: HEK-293T
Method: The compound of the present invention to be tested was formulated into a 1 mM solution with DMSO, and then subjected to 4-fold dilution at 10 concentration points using DMSO to obtain a 1000× mother liquor, with a final test concentration of 0.0000038-1 μM.
as §1
In a 384-well plate (PerkinElmer), 25 nL of the compound mother liquor was added, and then HEK293T cells transfected with plasmids were added at a density of 18000 cells/well (25 μL). The cells were incubated for 18-20 h under the conditions of 37° C. and 5% CO2.
After the incubation was ended, 25 μL of britelite plus luciferase assay reagent (PerkinElmer) was added, and then reading was performed using an Envision 2105 multimode reader (PerkinElmer).
as §2

Structure (SMILES) | IC50 (mouse B cells) [nM] | EC50 (glucocorticoid receptor [1]) [nM] | Emax (glucocorticoid receptor [1]; read-out: Emax) [%] | maximum agonistic effect (Emax) (glucocorticoid receptor [1]) | EC50 (glucocorticoid receptor [2]) [nM] | Emax (glucocorticoid receptor [3]) [%] | also measured
C[C@]12C=CC(=O)C=C1[C@@H](F)C[C@H]1[C@@H]3CC[C@](OC(=O)c4ccc(F)c(N)c4)(C(=O)SCF)[C@@]3(C)C[C@H](O)[C@@]12F [A-1] | 0.032 | 0.2 | 102 | superior to dexamethasone | 0.0097 |  | in-vitro inhibitory activity on the proliferation of mouse B cells (mouse B cells): most strongest inhibitory activity; in vitro activation activity on the glucocorticoid receptor in the cells (glucocorticoid receptor [2]): superior to comparative compound 1
C[C@H](O)CC(=O)O[C@]1(C(=O)SCF)[C@H](C)C[C@H]2[C@@H]3C[C@H](F)C4=CC(=O)C=C[C@]4(C)[C@@]3(F)[C@@H](O)C[C@@]21C [D-15, (6S,8S,9R,10S,11S,13S,14S,16R,17R)-6,9-difluoro-17-(((fluoromethyl)thio)carbonyl)-11-hydroxy-10,13,16-trimethyl-3-oxo-6,7,8,9,10,11,12,13,14,15,16,17-dodecahydro-3H-cyclopenta[a]phenanthren-17-yl (S)-3-hydroxybutyrate] |  |  |  |  | 0.074 | 102 | EC50 (glucocorticoid receptor [3]): 1.4 nM
C[C@H]1C[C@@]2(C)[C@@H](C[C@H]3O[C@@H](c4ccc(Cc5cccc(N)c5)cc4)O[C@]32C(=O)CO)[C@@H]2CCC3=CC(=O)C=C[C@]3(C)[C@H]21 [comparative compound 1, reference compound] |  |  |  |  | 0.956 |  | in-vitro inhibitory activity on the proliferation of mouse B cells (mouse B cells): relatively the weakest inhibitory activity
C[C@@H]1C[C@H]2[C@@H]3C[C@H](F)C4=CC(=O)C=C[C@]4(C)[C@@]3(F)[C@@H](O)C[C@]2(C)[C@@]1(OC(=O)CCO)C(=O)SCF [D-5] | 0.312 |  |  |  | 0.154 | 132 | EC50 (glucocorticoid receptor [3]): 1.3 nM; maximum agonistic activity (Emax) (glucocorticoid receptor [3]; compared with dexamethasone, transfected HEK293T cells): superior to dexamethasone; in vitro activation activity on the glucocorticoid receptor in the cells (glucocorticoid receptor [2]): superior to comparative compound 1
C[C@@H]1C[C@H]2[C@@H]3C[C@H](F)C4=CC(=O)C=C[C@]4(C)[C@@]3(F)[C@@H](O)C[C@]2(C)[C@@]1(OC(=O)[C@H]1C[C@@H]1c1ccc(N)cc1)C(=O)SCF [C-1] |  | 0.9 | 102 | superior to dexamethasone |  |  | 
C[C@@H]1C[C@H]2[C@@H]3C[C@H](F)C4=CC(=O)C=C[C@]4(C)[C@@]3(F)[C@@H](O)C[C@]2(C)[C@@]1(OC(=O)c1ccc(O)cc1)C(=O)SCF [B-13] |  | 0.27 | 100 |  |  |  | 
C[C@@H]1C[C@H]2[C@@H]3C[C@H](F)C4=CC(=O)C=C[C@]4(C)[C@@]3(F)[C@@H](O)C[C@]2(C)[C@@]1(OC(=O)c1ccccc1)C(=O)SCF [H-1, (6S,8S,9R,10S,11S,13S,14S,16R,17R)-6,9-difluoro-17-((fluoromethyl)thio)carbonyl)-11-hydroxy-10,13,16-trimethyl-3-oxo-6,7,8,9,10,11,12,13,14,15,16,17-dodecahydro-3H-cyclopenta[a]phenanthren-17-yl benzoate] |  | 0.18 | 110 | superior to dexamethasone |  |  | 
C[C@H]1C[C@@]2(C)[C@@H](C[C@H]3O[C@@H](c4ccc(Cc5cccc(N)c5)cc4)O[C@]32C(=O)CO)[C@@H]2CCC3=CC(=O)C=C[C@]3(C)[C@H]21 [Comparative example 1] | 0.825 |  |  |  |  |  | 
C[C@@H]1C[C@H]2[C@@H]3CCC4=CC(=O)C=C[C@]4(C)[C@@]3(F)[C@@H](O)C[C@]2(C)[C@@]1(O)C(=O)CO [Dexamethasone, reference compound] |  |  |  |  |  | 98.3 | Emax (glucocorticoid receptor [1]): 100%
